Results: ChEMBL document CHEMBL4138146, “A Schmidt rearrangement-mediated synthesis of novel tetrahydro-benzo[1,4]diazepin-5-ones as potential anticancer and antiprotozoal agents” (Eur J Med Chem, 2017)
≈ marks a conversion by molar mass, not a printed value.

Key:
HL-60(TB) = experiment: Growth inhibition of human HL-60(TB) cells assessed as cell growth at 10 uM incubated for 48 hrs by sulforhodamine B assay relative to control; type: functional; details: HL-60, 48 h, read-out: Activity
K562 = experiment: Growth inhibition of human K562 cells assessed as cell growth at 10 uM incubated for 48 hrs by sulforhodamine B assay relative to control; type: functional; details: K562, 48 h, read-out: Activity
MOLT-4 = experiment: Growth inhibition of human MOLT4 cells assessed as cell growth at 10 uM incubated for 48 hrs by sulforhodamine B assay relative to control; type: functional; details: MOLT-4, 48 h, read-out: Activity
RPMI-8226 = experiment: Growth inhibition of human RPMI8226 cells assessed as cell growth at 10 uM incubated for 48 hrs by sulforhodamine B assay relative to control; type: functional; details: RPMI-8226, 48 h, read-out: Activity
SR = experiment: Growth inhibition of human SR cells assessed as cell growth at 10 uM incubated for 48 hrs by sulforhodamine B assay relative to control; type: functional; details: read-out: Activity
EKVX = experiment: Growth inhibition of human EKVX cells assessed as cell growth at 10 uM incubated for 48 hrs by sulforhodamine B assay relative to control; type: functional; details: read-out: Activity
NCI-H23 = experiment: Growth inhibition of human NCI-H23 cells assessed as cell growth at 10 uM incubated for 48 hrs by sulforhodamine B assay relative to control; type: functional; details: NCI-H23, 48 h, read-out: Activity
NCI-H322M = experiment: Growth inhibition of human NCI-H322M cells assessed as cell growth at 10 uM incubated for 48 hrs by sulforhodamine B assay relative to control; type: functional; details: read-out: Activity
NCI-H460 = experiment: Growth inhibition of human NCI-H460 cells assessed as cell growth at 10 uM incubated for 48 hrs by sulforhodamine B assay relative to control; type: functional; details: NCI-H460, 48 h, read-out: Activity
HCT-116 = experiment: Growth inhibition of human HCT116 cells assessed as cell growth at 10 uM incubated for 48 hrs by sulforhodamine B assay relative to control; type: functional; details: HCT-116, 48 h, read-out: Activity
HCT-15 = experiment: Growth inhibition of human HCT15 cells assessed as cell growth at 10 uM incubated for 48 hrs by sulforhodamine B assay relative to control; type: functional; details: HCT-15, 48 h, read-out: Activity
SW-620 = experiment: Growth inhibition of human SW620 cells assessed as cell growth at 10 uM incubated for 48 hrs by sulforhodamine B assay relative to control; type: functional; details: SW-620, 48 h, read-out: Activity
SF-295 = experiment: Growth inhibition of human SF295 cells assessed as cell growth at 10 uM incubated for 48 hrs by sulforhodamine B assay relative to control; type: functional; details: SF-295, 48 h, read-out: Activity
M14 = experiment: Growth inhibition of human M14 cells assessed as cell growth at 10 uM incubated for 48 hrs by sulforhodamine B assay relative to control; type: functional; details: M14, 48 h, read-out: Activity
MDA-MB-435 = experiment: Growth inhibition of human MDA-MB-435 cells assessed as cell growth at 10 uM incubated for 48 hrs by sulforhodamine B assay relative to control; type: functional; details: MDA-MB-435, 48 h, read-out: Activity
SK-MEL-5 = experiment: Growth inhibition of human SK-MEL-5 cells assessed as cell growth at 10 uM incubated for 48 hrs by sulforhodamine B assay relative to control; type: functional; details: SK-MEL-5, 48 h, read-out: Activity
OVCAR-5 = experiment: Growth inhibition of human OVCAR5 cells assessed as cell growth at 10 uM incubated for 48 hrs by sulforhodamine B assay relative to control; type: functional; details: OVCAR-5, 48 h, read-out: Activity
SK-OV-3 = experiment: Growth inhibition of human SKOV3 cells assessed as cell growth at 10 uM incubated for 48 hrs by sulforhodamine B assay relative to control; type: functional; details: SK-OV-3, 48 h, read-out: Activity
786-0 = experiment: Growth inhibition of human 786-0 cells assessed as cell growth at 10 uM incubated for 48 hrs by sulforhodamine B assay relative to control; type: functional; details: 786-0, 48 h, read-out: Activity
ACHN = experiment: Growth inhibition of human ACHN cells assessed as cell growth at 10 uM incubated for 48 hrs by sulforhodamine B assay relative to control; type: functional; details: read-out: Activity
PC-3 = experiment: Growth inhibition of human PC3 cells assessed as cell growth at 10 uM incubated for 48 hrs by sulforhodamine B assay relative to control; type: functional; details: PC-3, 48 h, read-out: Activity
DU-145 = experiment: Growth inhibition of human DU145 cells assessed as cell growth at 10 uM incubated for 48 hrs by sulforhodamine B assay relative to control; type: functional; details: DU-145, 48 h, read-out: Activity
MCF7 = experiment: Growth inhibition of human MCF7 cells assessed as cell growth at 10 uM incubated for 48 hrs by sulforhodamine B assay relative to control; type: functional; details: MCF7, 48 h, read-out: Activity
T47D = experiment: Growth inhibition of human T47D cells assessed as cell growth at 10 uM incubated for 48 hrs by sulforhodamine B assay relative to control; type: functional; details: read-out: Activity
MDA-MB-468 = experiment: Growth inhibition of human MDA-MB-468 cells assessed as cell growth at 10 uM incubated for 48 hrs by sulforhodamine B assay relative to control; type: functional; details: MDA-MB-468, 48 h, read-out: Activity
U-937 = experiment: Cytotoxicity against human U937 cells after 72 hrs by MTT assay; type: functional; details: U-937, 72 h, read-out: LC50 (the source's name)
Plasmodium falciparum = experiment: Antimalarial activity against chloroquine-sensitive Plasmodium falciparum 3D7 incubated for 48 hrs by malstat reagent based LDH release assay; type: functional, organism-based; details: 3D7, 48 h
Leishmania panamensis = experiment: Antileishmanial activity against EpiR/GFP fused Leishmania panamensis MHOM/CO/87/UA140 intracellular amastigotes infected in human […] cells after 72 hrs by flow cytometric method; type: functional, organism-based; details: MHOM/CO/87/UA140, 72 h

O=C1NCC(c2cc3ccc4ccccc4c3[nH]c2=O)Nc2ccccc21 (stereo not given)
growth at 10 µM (HL-60(TB)): 86.7%
growth at 10 µM (K562): 97.3%
growth at 10 µM (MOLT-4): 90.4%
growth at 10 µM (RPMI-8226): 109%
growth at 10 µM (SR): 56.4%
growth at 10 µM (EKVX): 96.4%
growth at 10 µM (NCI-H23): 102%
growth at 10 µM (NCI-H322M): 111%
growth at 10 µM (NCI-H460): 82.3%
growth at 10 µM (HCT-116): 44.1%
growth at 10 µM (HCT-15): 102%
growth at 10 µM (SW-620): 91.5%
growth at 10 µM (SF-295): 100%
growth at 10 µM (M14): 102%
growth at 10 µM (MDA-MB-435): 106%
growth at 10 µM (SK-MEL-5): 99.2%
growth at 10 µM (OVCAR-5): 101%
growth at 10 µM (SK-OV-3): 99.9%
growth at 10 µM (786-0): 92.8%
growth at 10 µM (ACHN): 109%
growth at 10 µM (PC-3): 88.8%
growth at 10 µM (DU-145): 77.3%
growth at 10 µM (MCF7): 33.4%
growth at 10 µM (T47D): 85.7%
growth at 10 µM (MDA-MB-468): 116%
CC50 (U-937): 8.3 µg/mL (≈ 23.4 µM)
EC50 (Plasmodium falciparum): > 20 µg/mL
EC50 (Leishmania panamensis): 4.98 µg/mL (≈ 14 µM)

O=C1CC(c2cc3ccc4ccccc4c3[nH]c2=O)Nc2ccccc21 (stereo not given)
growth at 10 µM (HL-60(TB)): 100%
growth at 10 µM (K562): 87.2%
growth at 10 µM (MOLT-4): 89.5%
growth at 10 µM (RPMI-8226): 99.7%
growth at 10 µM (SR): 11.1%
growth at 10 µM (EKVX): 93.8%
growth at 10 µM (NCI-H23): 93.6%
growth at 10 µM (NCI-H322M): 108%
growth at 10 µM (NCI-H460): 81.1%
growth at 10 µM (HCT-116): 93%
growth at 10 µM (HCT-15): 96.5%
growth at 10 µM (SW-620): 96%
growth at 10 µM (SF-295): 105%
growth at 10 µM (M14): 96.4%
growth at 10 µM (MDA-MB-435): 109%
growth at 10 µM (SK-MEL-5): 98.9%
growth at 10 µM (OVCAR-5): 114%
growth at 10 µM (SK-OV-3): 98.8%
growth at 10 µM (786-0): 95.6%
growth at 10 µM (ACHN): 106%
growth at 10 µM (PC-3): 102%
growth at 10 µM (DU-145): 84.3%
growth at 10 µM (MCF7): 76.2%
growth at 10 µM (T47D): 93.1%
growth at 10 µM (MDA-MB-468): 91.2%

CCCCn1c(=O)c(C2CNC(=O)c3ccccc3N2)cc2ccc(Cl)cc21 (stereo not given)
growth at 10 µM (HL-60(TB)): 107%
growth at 10 µM (K562): 87.9%
growth at 10 µM (MOLT-4): 107%
growth at 10 µM (RPMI-8226): 103%
growth at 10 µM (SR): 59.8%
growth at 10 µM (EKVX): 89.8%
growth at 10 µM (NCI-H23): 93.5%
growth at 10 µM (NCI-H322M): 95.7%
growth at 10 µM (NCI-H460): 87%
growth at 10 µM (HCT-116): 73%
growth at 10 µM (HCT-15): 98.5%
growth at 10 µM (SW-620): 100%
growth at 10 µM (SF-295): 104%
growth at 10 µM (M14): 92.6%
growth at 10 µM (MDA-MB-435): 103%
growth at 10 µM (SK-MEL-5): 97.9%
growth at 10 µM (OVCAR-5): 109%
growth at 10 µM (SK-OV-3): 89.8%
growth at 10 µM (786-0): 107%
growth at 10 µM (ACHN): 95.4%
growth at 10 µM (PC-3): 93%
growth at 10 µM (DU-145): 94.9%
growth at 10 µM (MCF7): 89.1%
growth at 10 µM (T47D): 93.6%
growth at 10 µM (MDA-MB-468): 99.8%

CCCCOc1nc2ccc(OC)cc2cc1C1CNC(=O)c2ccccc2N1 (stereo not given)
growth at 10 µM (RPMI-8226): 88.9%
growth at 10 µM (NCI-H23): 99.2%
growth at 10 µM (NCI-H322M): 110%
growth at 10 µM (NCI-H460): 97.2%
growth at 10 µM (HCT-116): 85.3%
growth at 10 µM (SW-620): 97.6%
growth at 10 µM (M14): 99%
growth at 10 µM (MDA-MB-435): 104%
growth at 10 µM (SK-MEL-5): 86.9%
growth at 10 µM (OVCAR-5): 107%
growth at 10 µM (SK-OV-3): 89.3%
growth at 10 µM (786-0): 96.6%
growth at 10 µM (ACHN): 97.3%
growth at 10 µM (PC-3): 86.6%
growth at 10 µM (DU-145): 108%
growth at 10 µM (T47D): 94.1%
growth at 10 µM (MDA-MB-468): 96.8%

CCCCn1c(=O)c(C2CNC(=O)c3ccccc3N2)cc2ccccc21 (stereo not given)
growth at 10 µM (HL-60(TB)): 96.7%
growth at 10 µM (K562): 99.3%
growth at 10 µM (MOLT-4): 46.4%
growth at 10 µM (RPMI-8226): 109%
growth at 10 µM (SR): 102%
growth at 10 µM (EKVX): 103%
growth at 10 µM (NCI-H23): 95%
growth at 10 µM (NCI-H322M): 111%
growth at 10 µM (NCI-H460): 102%
growth at 10 µM (HCT-116): 94.9%
growth at 10 µM (HCT-15): 101%
growth at 10 µM (SW-620): 99.2%
growth at 10 µM (SF-295): 96.8%
growth at 10 µM (M14): 107%
growth at 10 µM (MDA-MB-435): 105%
growth at 10 µM (SK-MEL-5): 102%
growth at 10 µM (OVCAR-5): 96.3%
growth at 10 µM (SK-OV-3): 97.2%
growth at 10 µM (786-0): 92.4%
growth at 10 µM (ACHN): 98.2%
growth at 10 µM (PC-3): 106%
growth at 10 µM (DU-145): 108%
growth at 10 µM (MCF7): 99.6%
growth at 10 µM (T47D): 93.7%
growth at 10 µM (MDA-MB-468): 107%

O=C1CC(c2cc3ccccc3[nH]c2=O)Nc2ccccc21 (stereo not given)
growth at 10 µM (HL-60(TB)): 98%
growth at 10 µM (K562): 102%
growth at 10 µM (MOLT-4): 102%
growth at 10 µM (RPMI-8226): 107%
growth at 10 µM (SR): 95.4%
growth at 10 µM (EKVX): 108%
growth at 10 µM (NCI-H23): 97.8%
growth at 10 µM (NCI-H322M): 102%
growth at 10 µM (NCI-H460): 105%
growth at 10 µM (HCT-116): 91.6%
growth at 10 µM (HCT-15): 97.8%
growth at 10 µM (SW-620): 104%
growth at 10 µM (SF-295): 98.4%
growth at 10 µM (M14): 101%
growth at 10 µM (MDA-MB-435): 108%
growth at 10 µM (SK-MEL-5): 103%
growth at 10 µM (OVCAR-5): 106%
growth at 10 µM (SK-OV-3): 99.4%
growth at 10 µM (786-0): 93.9%
growth at 10 µM (ACHN): 99.9%
growth at 10 µM (PC-3): 104%
growth at 10 µM (DU-145): 105%
growth at 10 µM (MCF7): 102%
growth at 10 µM (T47D): 94.3%
growth at 10 µM (MDA-MB-468): 96.5%
